Measured values reported in patent publication US10519111B2, “UV absorbing compounds, compositions comprising same and uses thereof” (CORAL SUNSCREEN PTY LTD, priority 2013, dated 2019).
Where “and” joins values, the source holds several entries; their conditions need not be identical. Identical values can stand only once.

Assay: UV absorption properties (λmax, molar extinction coefficient ε, efficiency E 1%, 1 cm)
Type: physicochemical
[1] = values in order of the λmax values
[2] = Table 6A, N-isobutyl-C3-benzoyl compounds
[3] = Table 7, values in order of the λmax values
[4] = Table 1, covalently coupled compounds
[5] = Table 1, values in order of the λmax values
[6] = Table 2, values in order of the λmax values

UV λmax	ε (molar extinction coefficient) [1]	SMILES	further results
316 nm	23556 M⁻¹ cm⁻¹	CC1(C)CCN(C(C)(C)C)C=C1C(=O)c1ccncc1 [Compound 169, (1-(tert-butyl)-4,4-dimethyl-1,4,5,6-tetrahydropyridin-3-yl)(pyridin-4-yl)methanone]	
313 nm	9500 M⁻¹ cm⁻¹	COc1ccc(C(=O)C2=CN(CC(C)C)CCC2(C)C)c(OC)c1 [Compound 24, 2,4-dimethoxyphenyl(1-isobutyl-4,4-dimethyl-1,4,5,6-tetrahydropyridin-3-yl)methanone]	
317 nm	27506 M⁻¹ cm⁻¹	CC1(C)CCN(C(C)(C)C)C=C1C(=O)c1ccc(Br)cc1 [Compound 156, (4-bromophenyl)(1-(tert-butyl)-4,4-dimethyl-1,4,5,6-tetrahydropyridin-3-yl)methanone]	
336 nm	17000 M⁻¹ cm⁻¹	CC(C)CN1C=C(C(=O)c2ccc(N(C)C)cc2)C(C)(C)CC1 [Compound 15, (4-(dimethylamino)phenyl)(1-isobutyl-4,4-dimethyl-1,4,5,6-tetrahydropyridin-3-yl)methanone]	
		CCC(=O)C1=CN(CC(C)C)C(=O)CC1(C)C [drawing 169]	λmax (Table 13A, miscellaneous compounds): 291 nm
360 nm	23198 M⁻¹ cm⁻¹	CC1(C)CCN(C(C)(C)C)C=C1C(=O)/C=C/c1ccccc1 [Compound 155, (E)-1-(1-(tert-butyl)-4,4-dimethyl-1,4,5,6-tetrahydropyridin-3-yl)-3-phenylprop-2-en-1-one]	
		CC(C)CN1C=C(C(=O)c2ccc3c(c2)CCO3)C(C)(C)CC1 [drawing 85]	E (1%, 1 cm) (Table 6A): 831; ε (Table 6A): 22000 M⁻¹ cm⁻¹; λmax [2]: 320 nm
289 nm	31072 M⁻¹ cm⁻¹	CC1(C)CCN(C(C)(C)C)C=C1C(=O)NCCCCCCNC(=O)C1=CN(C(C)(C)C)CCC1(C)C [Compound 181, N,N′-(hexane-1,6-diyl)bis(1-(tert-butyl)-4,4-dimethyl-1,4,5,6-tetrahydropyridine-3-carboxamide)]	
		C=C(C)C(=O)C1=CN(CC(C)C)CCC1(C)C [drawing 116]	λmax (Table 7, unsaturated compounds): 310 nm; E (1%, 1 cm) [3]: 806; ε [3]: 18950 M⁻¹ cm⁻¹
354 nm	32744 M⁻¹ cm⁻¹	CN(C)c1ccc(N2C=C(C(=O)C(F)(F)F)C(C)(C)CC2)cc1 [Compound 196, 1-(1-(4-(dimethylamino)phenyl)-4,4-dimethyl-1,4,5,6-tetrahydropyridin-3-yl)-2,2,2-trifluoroethanone]	
308 nm		Cc1ccc(NC(=O)C2=CN(C(C)(C)C)CCC2(C)C)cc1NC(=O)C1=CN(C(C)(C)C)CCC1(C)C [Compound 184, N,N′-(4-methyl-1,3-phenylene)bis(1-(tert-butyl)-4,4-dimethyl-1,4,5,6-tetrahydropyridine-3-carboxamide)]	
		CC(C)CN1C=C(C(=O)c2ccc(-c3ccccc3)cc2)C(C)(C)CC1 [drawing 86]	E (1%, 1 cm) (Table 6A): 509; ε (Table 6A): 18000 M⁻¹ cm⁻¹; λmax [2]: 320 nm
		C=CCCC(=O)C1=CN(CC(C)C)CCC1(C)C [drawing 46]	λmax [4]: 308 nm; Ε (1%, 1 cm) [5]: 1417; ε [5]: 35000 M⁻¹ cm⁻¹
352 nm	18000 M⁻¹ cm⁻¹	C=C/C=C/C(=O)C1=CN(CC(C)C)CCC1(C)C [Compound 38, (2E/Z) 1-(1-isobutyl-4,4-dimethyl-1,4,5,6-tetrahydropyridin-3-yl)penta-2,4-dien-1-one]	
337 nm	17793 M⁻¹ cm⁻¹	CC1(C)CCN(c2ccc(C(C)(C)C)cc2)C=C1C(=O)C(c1ccccc1)c1ccccc1 [Compound 204, 1-(1-(4-(tert-butyl)phenyl)-4,4-dimethyl-1,4,5,6-tetrahydropyridine-3-yl)-2,2-diphenylethanone]	ε value (unit not given): approximately 18000
308 nm	34834 M⁻¹ cm⁻¹	CC1(C)CCN(C(C)(C)C)C=C1C(=O)Nc1ccccc1 [Compound 179, 1-(tert-butyl)-4,4-dimethyl-N-phenyl-1,4,5,6-tetrahydropyridine-3-carboxamide]	ε value (unit inferred): 35000 M⁻¹ cm⁻¹
328 nm	23500 M⁻¹ cm⁻¹	CCC(=O)C1=CN(c2ccc(OC)cc2)CCC1(C)C [Compound 52, 1-(1-(4-methoxyphenyl)-4,4-dimethyl-1,4,5,6-tetrahydropyridin-3-yl)propan-1-one]	
396 nm and 309 nm		CC1(C)CCN(C(C)(C)C)C=C1C(=O)CC(=O)c1ccccc1 [Compound 170, 1-(1-(tert-butyl)-4,4-dimethyl-1,4,5,6-tetrahydropyridin-3-yl)-3-phenylpropane-1,3-dione]	
295 nm	7500 M⁻¹ cm⁻¹	CC(C)CN1C=C(C(=O)c2ccc(C(=O)c3ccccc3)cc2)C(C)(C)CC1 [Compound 23, (4-benzoylphenyl)(1-isobutyl-4,4-dimethyl-1,4,5,6-tetrahydropyridin-3-yl)methanone]	

UV λmax	ε (molar extinction coefficient) [1]	SMILES	further results
		CC(C)CN1C=C(C(=O)c2ccc(C(=O)c3ccccc3)cc2)C(C)(C)CC1 [drawing 90]	E (1%, 1 cm) (Table 6A): 200; ε (Table 6A): 7500 M⁻¹ cm⁻¹; λmax [2]: 295 nm
321 nm	23247 M⁻¹ cm⁻¹	CCC(=O)C1=CN(c2cccc3ccccc23)CCC1(C)C [Compound 178, 1-(4,4-dimethyl-1-(naphthalen-1-yl)-1,4,5,6-tetrahydropyridin-3-yl)propan-1-one]	
323 nm	20000 M⁻¹ cm⁻¹	CCC(=O)O/C(=C\C1=CC(C)(C)CCN1CC(C)C)CC [Compound 60, 1-(1-isobutyl-4,4-dimethyl-1,4,5,6-tetrahydropyridin-2-yl)but-1-en-2-yl propionate]	
325 nm		CC1(C)CCN(c2cccc3ccccc23)C=C1C(=O)C(F)(F)F [Compound 198, 1-(4,4-dimethyl-1-(naphthalen-1-yl)-1,4,5,6-tetrahydropyridine-3-yl)-2,2,2-trifluoroethanone]	
310 nm	18950 M⁻¹ cm⁻¹	C=C(C)C(=O)C1=CN(CC(C)C)CCC1(C)C [Compound 36, 1-(1-Isobutyl-4,4-dimethyl-1,4,5,6-tetrahydropyridin-3-yl)methylprop-2-en-1-one]	
		C=CCC(=O)C1=CN(CC(C)C)CCC1(C)C [drawing 110]	λmax (Table 7, unsaturated compounds): 310 nm; E (1%, 1 cm) [3]: 1102; ε [3]: 27000 M⁻¹ cm⁻¹
		CC(C)CN1C=C(C(=O)c2ccc(C(C)(C)C)cc2)C(C)(C)CC1 [drawing 51]	λmax (Table 2, compounds 11-13): 317 nm; Ε (1%, 1 cm) [6]: 581; ε [6]: 19000 M⁻¹ cm⁻¹
360 nm	16000 M⁻¹ cm⁻¹	CC(C)CN1C=C(C(=O)/C=C/c2ccccc2)C(C)(C)CC1 [Compound 31, (E)-1-(1-Isobutyl-4,4-dimethyl-1,4,5,6-tetrahydropyridin-3-yl)-3-phenylprop-2-en-1-one]	
		CC(C)CN1C=C(C(=O)c2ccc(Br)cc2)C(C)(C)CC1 [drawing 84]	E (1%, 1 cm) (Table 6A): 642; ε (Table 6A): 22500 M⁻¹ cm⁻¹; λmax [2]: 318 nm
331 nm	20500 M⁻¹ cm⁻¹	C=CC(=O)C1=CN(CC(C)C)CCC1(C)C [Compound 32, 1-(1-Isobutyl-4,4-dimethyl-1,4,5,6-tetrahydropyridin-3-yl)prop-2-en-1-one]	
346 nm	21000 M⁻¹ cm⁻¹	C=CC(=O)C1=CN(c2ccccc2)CCC1(C)C [Compound 48, 1-(4,4-dimethyl-1-phenyl-1,4,5,6-tetrahydropyridin-3-yl)prop-2-en-1-one]	
318 nm and 370 nm	14800 M⁻¹ cm⁻¹ and 13200 M⁻¹ cm⁻¹	CC(C)CN1C=C(C(=O)/C=C/C=Cc2ccccc2)C(C)(C)CC1 [Compound 35, (2E, 4E/Z)-1-(1-isobutyl-4,4-dimethyl-1,4,5,6-tetrahydropyridin-3-yl)-5-phenylpenta-2,4-dien-1-one]	
332 nm	30675 M⁻¹ cm⁻¹	COc1ccc(N2C=C(C(=O)C3CCCC3=O)C(C)(C)CC2)cc1 (stereo not shown) [Compound 171, 2-(1-(4-methoxyphenyl)-4,4-dimethyl-1,4,5,6-tetrahydropyridine-3-carbonyl)cyclopentanone]	
278 nm	22550 M⁻¹ cm⁻¹	COc1ccc(N2C=CC(C)(C)CC2)cc1 [Compound 51, 1-(4-methoxyphenyl)-4,4-dimethyl-1,2,3,4-tetrahydropyridine]	
334 nm	33786 M⁻¹ cm⁻¹	COc1ccc(N2C=C(C(=O)Cc3ccccc3)C(C)(C)CC2)cc1 [Compound 174, 1-(1-(4-methoxyphenyl)-4,4-dimethyl-1,4,5,6-tetrahydropyridin-3-yl)-2-phenylethanone]	
		CC(C)CN1C=C(C(=O)c2cc(C(=O)C3=CN(CC(C)C)CCC3(C)C)cc(C(=O)C3=CN(CC(C)C)CCC3(C)C)c2)C(C)(C)CC1 [drawing 89]	E (1%, 1 cm) (Table 6A): 502; ε (Table 6A): 33000 M⁻¹ cm⁻¹; λmax [2]: 316 nm
314 nm	26000 M⁻¹ cm⁻¹	CC(C)CN1C=C(C(=O)C(c2ccccc2)c2ccccc2)C(C)(C)CC1 [Compound 71, 1-(1-isobutyl-4,4-dimethyl-1,4,5,6-tetrahydropyridin-3-yl)-2,2-diphenylethanone]	
339 nm	24235 M⁻¹ cm⁻¹	COc1ccc(N2C=C(C(=O)C(F)(F)F)C(C)(C)CC2)cc1 [Compound 195, 2,2,2-trifluoro-1-(1-(4-methoxyphenyl)-4,4-dimethyl-1,4,5,6-tetrahydropyridin-3-yl)ethanone]	
		COc1ccc(C(=O)C(CCCCCC(=O)C2=CN(CC(C)C)CCC2(C)C)C(=O)c2ccc(C(C)(C)C)cc2)cc1 (stereo not shown) [drawing 45]	λmax [4]: 306 nm
